The term IC50 denotes the concentration at which inhibition is half-maximal. Read a low IC50 as greater potency.

The target of one data set is T1, Aβ 1-42 (Homo sapiens, UniProt P05067).
T1 construct: The reaction solutions contained Aβ 1-42 at concentrations
As to the kind of experiment: Assay 1 Fluorometric H2O2 assay (peroxide). Format: biochemical. Conditions: inhibition of H2O2 generation by Aβ with copper. As to the method:
Assay 1. Fluorometric H2O2 Assay
A fluorometric assay was used to test the ability of a test compound to inhibit hydrogen peroxide generation by Aβ in the presence of copper based on dichlorofluoroscein diacetate (DCF; Molecular Probes, Eugene Oreg.). The DCF solution (5 mM) in 100% dimethyl sulphoxide (previously purged with argon for 1 hr at 20° C.) was deacetylated in the presence of 0.025M NaOH for 30 min and neutralised at pH 7.4 to a final concentration of 1 mM. Horseradish peroxidase (HRP) stock solution was prepared to 1 μM at pH 7.4. The reactions were carried out in PBS, pH 7.4 in a 96 well plate (total volume=250 μl/well). The reaction solutions contained Aβ 1-42 at concentrations in the range of 50 nM to 1 μM, copper-glycine chelate (Cu-Gly), was prepared by adding CuCl2 to glycine in the ratio of 1:6 and added to the Aβ in the proportion 2Cu-Gly:1Aβ), reducing agents including dopamine (5 μM) or ascorbic acid, deacetylated DCF 100 μM, and HRP, 0.1 μM. 1-10 μM EDTA or another chelator may also be present as a control for free copper, but was not required for the assay to function. The reaction mixture was incubated at 37 C for 60 min. Catalase (4000 units/ml) and H2O2 (1-2.5 μM) standards in PBS pH 7.4 may be included as positive controls. Fluorescence was recorded using a plate reader with excitation and emission filters at […] respectively. H2O2 concentration may be established by comparing fluorescence with the H2O2 standards. Inhibition of Aβ H2O2 production was assayed by including a given concentration of test compound(s) in the test wells.

Data set [1] relates to Aβ1-42 toxicity in neuronal cortical cells. As to the kind of experiment: Assay 3(c) Aβ neurotoxicity and neuroprotection (MTS). Conditions: 20 uM Aβ1-42, cortical neurons, 4 days. Format: cell-based, mouse. As to the method: (§1) Primary Cortical Neuronal Cultures
(§2) Cortical cultures were prepared as previously described (White et al., 1998). Embryonic day 14 BL6Jx129sv mouse cortices were removed, dissected free of meninges and dissociated in 0.025% (wt/vol) trypsin. Dissociated cells were plated in 48 well culture plates at a density of 2×10^6 cells/mL in MEM with 25% (vol/vol) FCS and 5% (vol/vol) HS and incubated at 37° C., 2 hrs. Media was then replaced with Neurobasal media (Invitrogen Life Technologies) and B27 supplements (Invitrogen Life Technologies). Cultures were maintained at 37° C. in 5% CO2. Prior to experimentation, the culture medium was replaced with Neurobasal media and B27 minus antioxidants (Invitrogen Life Technologies).
(c) Assay for Aβ Neurotoxicity and Aβ Neuroprotection
Neuronal cortical cells were cultured for five days as per Assay 2. On day six the neurobasal (NB) media (Invitrogen Life Technologies) and B27 supplement (Invitrogen Life Technologies) were replaced with NB media and B27 supplement (no antioxidants). On day six, test compounds were individually added to the neuronal cell cultures:
The test compounds were dissolved in 100% DMSO to a concentration of 2.5 mM (10 mM if excess compound was weighed out per vial—then diluted to 2.5 mM). 2.5 mM stock solution was serially diluted 1 in 10 to give working solutions of 250 uM, 25 uM, 2.5 uM.
Aβ was initially dissolved in 20 mM NaOH to a concentration of 1 mM and sonicated for 5 minutes. The peptide was then diluted in H2O and 10×PBS to a final concentration of 200 uM Aβ in 1× PBS. The peptide was again sonicated for 5 minutes and then spun at 14000 rpm for 5 min and transferred to a fresh tube.
The test compounds were dissolved in 100% DMSO to a concentration of 2.5 mM (10 mM if excess compound was weighed out per vial—then diluted to 2.5 mM). 2.5 mM stock solution was serially diluted 1 in 10 [in NB media and B27 (no antioxidants)] to give working solutions of 250 uM, 25 uM, 2.5 uM. Test compounds were not added directly to cells, instead they were added to a 48 well ‘Drug Plate’ as comprised below:
(§3) Preparation of “Drug Plate”:
Well 1: 515 ul NB+B27 (no antioxidant)*+24 ul 25 uM test compound+60 ul Aβ diluent**
Well 2: 515 ul NB+B27 (no antioxidant)+24 ul 250 uM test compound+60 ul Aβ diluent
Well 3: 515 ul NB+B27 (no antioxidant)+24 ul test compound diluent***+60 ul Aβ1-42
Well 4: 515 ul NB+B27 (no antioxidant)+24 ul 2.5 uM test compound+60 ul Aβ1-42
Well 5: 515 ul NB+B27 (no antioxidant)+24 ul 25 uM test compound+60 ul Aβ1-42
Well 6: 515 ul NB+B27 (no antioxidant)+24 ul 250 uM test compound+60 ul Aβ1-42 diluent
Well 7: 515 ul NB+B27 (no antioxidant)+24 ul test compound diluent+60 ul Aβ1-42 diluent
Well 8: 600 ul NB+B27 (no antioxidant)
The Drug Plate was incubated at 37° C. for 15 mins. 200 ul of each well was added in triplicate to the corresponding cell plate. The cell plate was incubated at 37 C, for 4 days.
* NB media+B27 (no antioxidants)
** Aβ diluent 2 mM NaOH, 1×PBS
*** PBT diluent 10% DMSO in NB+B27 (no antioxidant)
On the 4th day after treating the cells the assay is completed by adding MTS to the cells.

Data set [2] is described as follows: Assay 3(d) test compound cytotoxicity (MTS). The class given is cell-based. Conditions: BL6Jx129sv, mouse, primary cortical neuronal cultures, cortical neurons; for viability at 4 days, 10 µM: read-out: Assay 3(d) Cytotoxicity (% viable at 10 uM); for viability at 4 days, 1 µM: read-out: Assay 3(d) Cytotoxicity (% viable at 1 uM). The method, then:
as §1, §2
(a) MTS Assay for Cell Viability
Cell viability is determined using the MTS assay. Culture medium is replaced with fresh neurobasal medium plus B27 supplements minus antioxidants. 1/10 volume MTS solution (Cell Titre 96 Aqueous One, Promega Corporation) and incubated at 37° C., 2 hrs. 200 microlitre aliquots are measured with a spectrophotometer at 560 nm.
(d) Assay for Test Compound Cytoxicity
Neuronal cortical cells were cultured for five days as per Assay 2 in NB media and B27 supplement.
On day six the test compounds were added to the neuronal cell cultures in NB media and B27 supplement minus antioxidants.
Test compounds were dissolved in 100% DMSO to a concentration of 2.5 mM (10 mM if excess compound was weighed out per vial—then diluted to 2.5 mM). 2.5 mM stock solution was serially diluted 1 in 10 to give working solutions of 250 uM, 25 uM, 2.5 uM. Test compounds were not added directly to cells, instead they were added to a 48 well ‘Drug Plate’ as comprised below:
as §3
• Well 1: 576 ul NB+B27 (no antioxidant)*+24 ul 2.5 uM test compound • Well 2: 576 ul NB+B27 (no antioxidant)+24 ul 25 uM test compound • Well 3: 576 ul NB+B27 (no antioxidant)+24 ul 250 uM test compound • Well 4: 576 ul NB+B27 (no antioxidant)+24 ul 2.5 uM test compound • Well 5: 576 ul NB+B27 (no antioxidant)+24 ul 25 uM test compound • Well 6: 576 ul NB+B27 (no antioxidant)+24 ul 250 uM test compound • Well 7: 576 ul NB+B27 (no antioxidant)+24 ul test compound diluent** • Well 8: 600 ul NB+B27 (no antioxidant)
The Drug Plate was incubated at 37° C. for 15 mins. 200 ul of each well was added in triplicate to the corresponding cell plate. The cell plate was incubated at 37° C., for 4 days, (2 compounds are tested on each plate of cells).
* NB media and B27 (no antioxidants),
** PBT diluent 10% DMSO in NB+B27 (no antioxidants)
On completion of the assay, 1/10 volume MTS was added per well of plate (ie 25 ul/250 ul). The plates were incubated at 37° C. for 2 hrs, and then absorbance was read at 560 nm.

Data set [3] is described as follows: Assay 16 mouse plasma levels of test compounds. Conditions: highest level found in mice (Up to); oral dosing 30 mg/kg described for PB 1075-1077. The class given is in vivo. As to the method: Assay 16. Determination of Mouse Plasma Levels of Test Compounds PB 1075
Oral administration of PB 1075 at 30 mg/kg, as a suspension in Na-Carboxymethyl Cellulose (CMC) was administered by oral gavage to four mice. Two mice were sacrificed 30 minutes after administration and two mice were sacrificed 60 minutes after administration. Blood was obtained by cardiac puncture and plasma separated by centrifugation.
The concentration of PB 1075 was determined by LC/MS using the triple quadrupole instrument. The mobile phase consisted of an acetonitrile (ACN)/water gradient (containing 0.05% Formic acid) and the column was a Phenomenex Lunea 5 um C8 (50×2 mm) column.
The supplied acute toxicity mouse plasma samples were directly injected following a protein precipitation with ACN. The analytical method in plasma was linear in the range of 10 to 10,000 ng/ml (R^2=0.994). Recovery of PB 1075 from plasma was ˜100%.
Oral administration of PB 1076 at 30 mg/kg, as a suspension in Na-Carboxymethyl Cellulose (CMC) was administered by oral gavage to four mice. Two mice were sacrificed 30 minutes after administration and two mice were sacrificed 60 minutes after administration. Blood was obtained by cardiac puncture and plasma separated by centrifugation.
The concentration of PB 1076 was determined by LC/MS using the triple quadrupole instrument. The mobile phase consisted of an acetonitrile (ACN)/water gradient (containing 0.05% Formic acid) and the column was a Phenomenex Luna 5 μM C8 (50×2 mm) column.
The mouse plasma samples were directly injected following a protein precipitation with ACN. The analytical method in plasma was linear in the range of 500 to 10,000 ng/ml (R^2=0.999). Recovery of PB 1076 from plasma was ˜85%.
Oral administration of PB 1077 at 30 mg/kg, as a suspension in Na-Carboxymethyl Cellulose (CMC) was administered by oral gavage to four mice. Two mice were sacrificed 30 minutes after administration and two mice were sacrificed 60 minutes after administration. Blood was obtained by cardiac puncture and plasma separated by centrifugation.
The concentration of PB 1077 was determined by LC/MS using the triple quadrupole instrument. The mobile phase consisted of an acetonitrile (ACN)/water gradient (containing 0.05% Formic acid) and the column was a Phenomenex Luna 5 μM C8 (50×2 mm) column.
The mouse plasma samples were directly injected following a protein precipitation with ACN. The analytical method in plasma was linear in the range of 5 to 5,000 ng/ml (R^2=0.999). Recovery of PB 1077 from plasma was ˜92%.

T1 sequence (P05067 672-713 limits assumed): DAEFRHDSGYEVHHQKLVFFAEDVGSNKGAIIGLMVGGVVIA

Consider `O=c1c2c(Cl)cc(Cl)c(O)c2ncn1N1CCOCC1` [Compound 1080], for which inhibition against Aβ 1-42 was half-maximal at 0.44 µM (IC50). In addition, in data set [1], the “Assay 3(c) Neuroprotection (% inhibition of Abeta toxicity)” value worked out at 15%. Further, the viability at 4 days, 10 µM in data set [2] came out at 70%.
On Aβ 1-42, `CN1CCN(n2cnc3c(O)c(Cl)cc(Cl)c3c2=O)CC1` [Compound 1081] registered an IC50 of 0.55 µM. The “Assay 3(c) Neuroprotection (% inhibition of Abeta toxicity)” value in data set [1] came out at 7%. Moreover, the “Assay 16 Mice plasma concentration” value in data set [3] was “Up to 207 ng/mL”.
Take `O=c1c2c(Cl)cc(Cl)c(O)c2ncn1-c1ccc(Cl)cn1` [Compound 1087]: on Aβ 1-42, inhibition was half-maximal at 1.52 µM (IC50). The “Assay 3(c) Neuroprotection (% inhibition of Abeta toxicity)” value in data set [1] was 11%. Also, in data set [2], the viability at 4 days, 1 µM stood at 94% and the viability at 4 days, 10 µM worked out at 58%.
With `CCn1nccc1-n1cnc2c(O)c(Cl)cc(Cl)c2c1=O` [Compound 1088], the IC50 on Aβ 1-42 came to 0.84 µM. In addition, in data set [1], the “Assay 3(c) Neuroprotection (% inhibition of Abeta toxicity)” value is 3%. In addition, the viability at 4 days, 10 µM in data set [2] amounted to 94%.
On to `Cc1ccc(-n2cnc3c(O)c(Cl)cc(Cl)c3c2=O)nc1` [Compound 1089], for which half-maximal inhibition against Aβ 1-42 (IC50) required 0.78 µM. The “Assay 3(c) Neuroprotection (% inhibition of Abeta toxicity)” value in data set [1] turned out to be 13%. Further, in data set [2], the viability at 4 days, 1 µM came out at 96% and the viability at 4 days, 10 µM worked out at 83%.
With `O=c1c2c(Cl)cc(Cl)c(O)c2ncn1CCc1ccccn1` [Compound 1091], the IC50 at Aβ 1-42 worked out at 0.46 µM. In addition, in data set [1], the “Assay 3(c) Neuroprotection (% inhibition of Abeta toxicity)” value is recorded as −8%. For the same compound, in data set [2], the viability at 4 days, 1 µM was 100% and the viability at 4 days, 10 µM stood at 92%.
In the case of `O=c1c2c(Cl)cc(Cl)c(O)c2ncn1CC1CCNCC1` [Compound 1094], in data set [1], the “Assay 3(c) Neuroprotection (% inhibition of Abeta toxicity)” value came to 1%. In data set [2], the viability at 4 days, 1 µM came to 97% and the viability at 4 days, 10 µM came out at 96%.

The values are drawn from patent US8084459B2, “Substituted quinazolinones for treating neurological conditions” (Prana Biotechnology Ltd, priority 2004, dated 2011).
